Data from paper PMC10726354, “Design, Synthesis, and Biological Evaluation of Small-Molecule-Based Radioligands with Improved Pharmacokinetic Properties for Imaging of Programmed Death Ligand 1” (Journal of Medicinal Chemistry, 2023).
“And” between values parts separate entries of the source, which are not always exact repeats. Equal entries are not always repeated. “Also recorded” adds a separate entry of the source.

How the values were obtained:
[1] = system: PC3 mock tumor; assay: Small-animal PET, uptake in mock tumor; conditions: for SUVmax PC3 mock tumor: tracer only; for SUVmax PC3 mock tumor +block: blocker i.v. before tracer: Cu-1 100 nmol 1, Cu-2 100 nmol 2, Cu-3 1000 nmol 4, Cu-4 500 nmol 4, Cu-6 250 nmol 1 (~5 min prior), Cu-5 100 nmol 5 (~30 min prior)
Experimental: (§1) Changes are reported as % change of the SUVmax of the PD-L1 expressing over the respective value of the mock tumor. Similarly, the effect of blocking is reported as % change of the SUVmax of the animal injected with cold compound over that of the animal that received tracer only.
(§2) Animal experiments were performed in accordance with the guidelines of the German Regulations for Animal Welfare, approved by the Saxonian Ethical Committee for Animal Experiments (reference number DD24.1-5131/449/49). Male athymic NMRI-nude mice (Rj: NMRI-Foxn1^nu/nu, Janvier Laboratories, Le Genest-Saint-Isle, France) between 8 and 22 weeks of age were used. Under general anesthesia, [∼10% desflurane (Baxter, Deerfield, IL, USA) in 30 vol % oxygen + air] and warming, the animals were subcutaneously injected with 3–5 × 10^6 PC3-PD-L1 and PC3-mock cells [in 50 μL PBS +50 μL Matrigel (Corning, Glendale, USA)] into the right and left thigh, respectively. Tumor growth was monitored three times a week by caliper measurements, and mice with tumor sizes above 7 mm were included in the experiments.
(§3) For PET studies, general anesthesia was induced as described above. PET and X-ray computed tomography (CT) were performed in a dedicated small animal nanoScan PET/CT scanner, with four animals imaged simultaneously (Mediso, Budapest, Hungary). CT images were employed for attenuation correction and anatomical referencing. Animals received three individual scans corresponding to 0–2 h (dynamic) and 4.5 and 24 h (static) postinjection.
(§4) PD-L1 radiotracer candidates (in 300 μL sterile 0.9% NaCl/HEPES buffer, pH 6–7, between 7 and 12 MBq, molar activities > 12 GBq/μmol) were delivered over 30 s i.v. (lateral tail vein) and PET acquisition started simultaneously. For blocking condition, a defined quantity of compound (the same unlabeled compound, one from the same series or BMS-1166) was diluted in sterile saline and injected i.v. approximately 5 min prior to the radiotracer. Animals not subjected to blocking were injected with vehicle at the same time.
(§5) Three-dimensional list mode data were binned using the 400–600 keV energy window and sorted into 36 time frames (15 × 10 s, 5 × 30 s, 5 × 60 s, 4 × 300 s, 3 × 600 s, 4 × 900 s). Time frames were reconstructed using the Tera-TomoTM 3D algorithm applying a voxel size of 0.4 mm and corrections for decay, scatter, and attenuation.
(§6) Three-dimensional volumes of interest were delineated applying fixed thresholding at 35% of the measured maximum intensity. Standardized uptake values (SUV = [MBq detected activity/mL tissue]/[MBq injected activity/g body weight], […]) were determined in selected volumes of interest, among these PD-L1 and mock tumors.
(§7) 14. In vivo: PET- SUV data
(§8) Standardized uptake values (SUVmax)
(§9) Supplementary table 1: In vivo standardized uptake values (SUVmax ± standard deviation) of 64Cu-labeled third series compounds [64Cu]Cu-1-6 at 1.5 (1–2), 4.5 (4–5) and 24.5 (24–25) hours
(§10) post injection (p.i.). Compounds used for blocking are described for each tracer and were intravenously injected in sterile saline at stated time before the radiotracer. Animals designated for
(§11) tracer-only received matched type and volume of vehicle at the same time.

[2] = Small-animal PET, excretion pattern; format: in vivo, mouse; conditions: PET 0–2, 4–5 and 24–25 h p.i., i.v.
Experimental: Time points of PET imaging were 0–2, 4–5, and 24–25 h post injection (p.i.).

[3] = system: PC3 PD-L1-overexpressing tumor; assay: Small-animal PET, uptake in PD-L1-overexpressing tumor; conditions: for SUVmax PC3 PD-L1 overexpressing tumor: tracer only; for SUVmax PC3 PD-L1 overexpressing tumor +block: blocker i.v. before tracer: Cu-1 100 nmol 1, Cu-2 100 nmol 2, Cu-3 1000 nmol 4, Cu-4 500 nmol 4, Cu-6 250 nmol 1 (~5 min prior), Cu-5 100 nmol 5 (~30 min prior)
Experimental: as §1, §2, §3, §4, §5, §6, §7, §8, §9, §10, §11

[4] = target: T1, PD-L1 (Homo sapiens, UniProt Q9NZQ7); assay: Real-time radioligand binding (LigandTracer) on PC3 PD-L1 cells; conditions: for Kd: real-time binding
T1 construct: expressed in transfected cells; host or cells: PC3 cells (human prostate carcinoma), stably transduced
Experimental: Real-time radioligand binding using the ligand tracer platform was performed, similar to our previously reported tracer candidates. As we aimed at reducing the albumin binding of the herein presented compounds, we performed measurements in the presence or absence of a mouse physiological concentration of BSA (2.5 g/dL).
For real-time binding to assess kinetics (association rate constant ka and dissociation rate constant kd) and dissociation constant (KD), LigandTracer (Yellow, Ridgeview Instruments AB, Sweden) was employed. Approximately 1.2 × 10^6 cells (in 3 mL medium) were seeded to one side of a Petri dish (Nunc) 1 day prior to experiments as described before.[45] Binding was then performed at room temperature (using CO2-independent medium, Gibco #18045088, Thermo Fisher Germany) with or without BSA (2.5%). First, association was determined by incubation with two concentrations (10 and 40 nM, 90 min each) of the ^64Cu-labeled PD-L1 ligands. Dissociation was then assessed by replacement with fresh medium for at least 2 h. Data were acquired in decay-corrected counts per second (CPS), and binding data were then evaluated using TraceDrawer (1.9.2, Ridgeview Instruments AB, Sweden). Traces were inspected for spikes and irregularities and then normalized to their own baseline (=0%) and highest value (=100%). Data were then fitted using a one-to-one interaction, accounting for the bulk effect.

[5] = Radiotracer production data: stability of the product to in vivo experiments; format: physicochemical
[6] = medium only (no BSA), n = 2, mean ± S.D.

T1 sequence (Q9NZQ7 19-290): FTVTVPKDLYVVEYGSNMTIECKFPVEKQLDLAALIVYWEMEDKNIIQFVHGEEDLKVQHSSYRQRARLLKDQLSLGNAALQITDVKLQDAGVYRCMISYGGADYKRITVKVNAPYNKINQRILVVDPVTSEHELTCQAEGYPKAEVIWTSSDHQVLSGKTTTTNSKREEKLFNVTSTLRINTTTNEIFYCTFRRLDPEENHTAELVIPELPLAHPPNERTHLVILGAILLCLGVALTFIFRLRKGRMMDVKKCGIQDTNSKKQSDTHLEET

For `Cc1c(COc2cc(OCc3cncc(S(C)(=O)=O)c3)c(CN[C@@H](CS(=O)(=O)O)C(=O)NCCP(=O)(O)O)cc2Cl)cccc1-c1cccc(OCc2cn(CCCN3CCN(C(=O)CC[C@H](C(=O)O)N4CCN(CC(=O)O)CCN(CC(=O)O)CC4)CC3)nn2)c1C.[64Cu+2]` [[^64Cu]Cu-4], the “SUVmax PC3 mock tumor” value ([1]; 1.5 (1–2) hours p.i.) was 0.8 ± 0.10, the “SUVmax PC3 mock tumor +block” value ([1]; 1.5 (1–2) hours p.i.) was 0.65 ± 0.05 and the “SUVmax PC3 mock tumor” value ([1]; 4.5 (4–5) hours p.i.) was 0.45 ± 0.05. The “SUVmax PC3 mock tumor +block” value ([1]; 4.5 (4–5) hours p.i.) was 0.6 ± 0.2, the “SUVmax PC3 mock tumor” value ([1]; 24.5 (24–25) hours p.i.) was 1.25 ± 0.15 and the “SUVmax PC3 mock tumor +block” value ([1]; 24.5 (24–25) hours p.i.) was 0.8 ± 0.3. The “excretion / clearance pattern (PET)” value [2] was “almost exclusive hepatobiliary elimination; also recorded: primarily hepatobiliary clearance”, the “blocking effect: % change of SUVmax in PD-L1 tumor vs tracer-only” value (“blocking effect: % change of SUVmax” below) ([3]; 1–2 h (1.5 h) p.i., blocker: Cu-3 1000 nmol 4, Cu-4 500/1000 nmol 4, Cu-5 100 nmol 5, Cu-6 250 nmol BMS-1166) was −57% and the “% change of SUVmax of the PD-L1 expressing tumor over the mock tumor” value (shortened to “% change of SUVmax … over the mock tumor”) ([3]; 1–2 h p.i.) was 146%. The “SUVmax PC3 PD-L1 overexpressing tumor” value ([3]; 1.5 (1–2) hours p.i.) was 1.97 ± 0.23, the “SUVmax PC3 PD-L1 overexpressing tumor +block” value ([3]; 1.5 (1–2) hours p.i.) was 0.85 ± 0.05 and the “blocking effect: % change of SUVmax” value ([3]; 4–5 h (4.5 h) p.i., blocker: Cu-3 1000 nmol 4, Cu-4 500/1000 nmol 4, Cu-5 100 nmol 5, Cu-6 250 nmol BMS-1166) was −13% and −12%. For the same molecule, the “% change of SUVmax … over the mock tumor” value ([3]; 4–5 h p.i.) was 166%, the “SUVmax PC3 PD-L1 overexpressing tumor” value ([3]; 4.5 (4–5) hours p.i.) was 1.2 ± 0.4 and the “SUVmax PC3 PD-L1 overexpressing tumor +block” value ([3]; 4.5 (4–5) hours p.i.) was 1.05 ± 0.35. The “blocking effect: % change of SUVmax” value ([3]; 24–25 h (24.5 h) p.i., blocker: Cu-1, Cu-2 100 nmol unlabeled compound, Cu-3 1000 nmol 4, Cu-4 500/1000 nmol 4, Cu-5 100 nmol 5, Cu-6 250 nmol BMS-1166) was −45%, the “% change of SUVmax … over the mock tumor” value ([3]; 24–25 h p.i.) was 60% and the “SUVmax PC3 PD-L1 overexpressing tumor” value ([3]; 24.5 (24–25) hours p.i.) was 2.0 ± 0.1. For the same molecule, the “SUVmax PC3 PD-L1 overexpressing tumor +block” value ([3]; 24.5 (24–25) hours p.i.) was 1.1 ± 0.1, the “Bmax [normalized (%)]” value ([4]; medium + 2.5% BSA, n = 1) was 883% and the “ka (association rate constant)” value ([4]; medium + 2.5% BSA, n = 1) was 230 M/s. The “Bmax [normalized (%)]” value [4, 6] was 846 ± 451%, the “ka (association rate constant)” value ([4]; medium only (no BSA), n = 2, mean ± S.D., room temperature) was “(0.56 ± 0.35) × 10^3 (M s)^−1” and the Kd ([4]; medium + 2.5% BSA, n = 1) was 744 nM. For the same molecule, the Kd [4, 6] was 201 ± 149 nM and the “Stability of the product to in vivo experiments” value [5] was > 99%.
